Laboratory results as given in patent US12391680B2, “Compounds and compositions for the treatment of cystic fibrosis” (FONDAZIONE ISTITUTO ITALIANO DI TECNOLOGIA, priority 2019, dated 2025).

Experiments:
Format in all cases: cell-based
F508del-CFTR [1] = biological target: T1, F508del-CFTR (Homo sapiens, UniProt P13569, DEL508-508); assay: Transepithelial electrical conductance (TEEC) in FRT cells expressing F508del-CFTR; set-up: expressed in transfected cells; host or cells: FRT cells; settings: tested at 5.0 μM, 24 hrs incubation
T1 sequence (P13569 with tags, fused parts or gaps DEL508-508): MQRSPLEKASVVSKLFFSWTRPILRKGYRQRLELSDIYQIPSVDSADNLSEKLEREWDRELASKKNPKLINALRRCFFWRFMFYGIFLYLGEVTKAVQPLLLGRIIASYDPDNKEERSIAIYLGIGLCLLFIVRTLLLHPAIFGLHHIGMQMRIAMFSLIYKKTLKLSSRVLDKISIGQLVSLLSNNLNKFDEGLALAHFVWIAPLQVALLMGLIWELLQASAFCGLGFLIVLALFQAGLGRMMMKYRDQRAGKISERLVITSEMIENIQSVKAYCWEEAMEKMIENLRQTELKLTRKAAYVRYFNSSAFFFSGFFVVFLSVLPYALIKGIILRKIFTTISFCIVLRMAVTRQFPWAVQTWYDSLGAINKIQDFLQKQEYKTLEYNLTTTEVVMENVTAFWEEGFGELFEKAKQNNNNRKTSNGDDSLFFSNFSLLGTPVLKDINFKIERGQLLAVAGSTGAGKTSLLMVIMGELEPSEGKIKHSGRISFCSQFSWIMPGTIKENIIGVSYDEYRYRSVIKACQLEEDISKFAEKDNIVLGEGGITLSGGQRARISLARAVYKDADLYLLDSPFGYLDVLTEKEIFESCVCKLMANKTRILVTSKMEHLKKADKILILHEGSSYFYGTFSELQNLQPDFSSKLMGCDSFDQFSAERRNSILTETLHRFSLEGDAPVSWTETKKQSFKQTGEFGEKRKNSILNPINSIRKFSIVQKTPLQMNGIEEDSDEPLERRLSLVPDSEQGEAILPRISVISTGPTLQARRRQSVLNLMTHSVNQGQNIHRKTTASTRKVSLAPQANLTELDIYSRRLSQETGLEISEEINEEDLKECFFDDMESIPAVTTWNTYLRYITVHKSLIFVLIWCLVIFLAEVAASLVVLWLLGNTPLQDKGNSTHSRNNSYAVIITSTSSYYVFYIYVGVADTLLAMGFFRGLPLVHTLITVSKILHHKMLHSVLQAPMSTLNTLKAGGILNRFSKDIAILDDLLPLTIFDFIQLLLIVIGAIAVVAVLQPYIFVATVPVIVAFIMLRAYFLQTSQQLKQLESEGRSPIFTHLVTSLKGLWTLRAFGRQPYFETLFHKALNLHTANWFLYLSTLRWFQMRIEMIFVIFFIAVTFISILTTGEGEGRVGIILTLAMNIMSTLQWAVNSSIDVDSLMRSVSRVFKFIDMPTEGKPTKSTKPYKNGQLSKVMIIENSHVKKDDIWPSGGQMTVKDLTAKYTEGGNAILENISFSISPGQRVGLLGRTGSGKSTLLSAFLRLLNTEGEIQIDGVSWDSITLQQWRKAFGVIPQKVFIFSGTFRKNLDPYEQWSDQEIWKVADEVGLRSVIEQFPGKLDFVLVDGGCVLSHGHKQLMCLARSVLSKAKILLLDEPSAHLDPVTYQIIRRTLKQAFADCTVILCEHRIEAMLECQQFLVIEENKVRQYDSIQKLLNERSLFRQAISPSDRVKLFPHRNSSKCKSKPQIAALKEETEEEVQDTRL
Experimental: FRT cells expressing F508del-CFTR were plated on HTS Transwell-24 well permeable supports (Code 3379, Corning Life Sciences) at a density of 200,000 cells/well. After six days, cells were incubated for 24 hrs with test correctors, vehicle, or VX-809. Compounds were dissolved in both basolateral (800 μL) and apical (300 μL) culture medium. After treatment, the culture medium was removed and replaced on both sides with a saline solution containing (in mM): 130 NaCl, 2.7 KCl, 1.5 KH2PO4, 1 CaCl2, 0.5 MgCl2, 10 glucose, 10 Na-Hepes (pH 7.4). The basolateral and apical side received 800 μL and 100 μL, respectively. The 24-well tray with cells was placed on a block heater (SBH 130D, Stuart) to keep the temperature at 37° C. during the entire experiment. After 10 min, the basal transepithelial electrical resistance (TEER) across each layer of FRT cells was measured with a STX100C electrode pair connected to an EVOM2 voltohmeter (World Precision Instruments). To stimulate F508del-CFTR, each well received (apical side) 50 μL of saline solution containing 60 μM forskolin and 150 μM genistein (final concentrations: 20 μM forskolin, 50 μM genistein). Forskolin was also pipetted in the basolateral medium to obtain the 20 μM concentration. After 10 min TEER was measured again in each well. To block F508del-CFTR function, the inhibitor PPQ-102 was used at the final concentration of 30 μM. To achieve the desired concentration, 75 μL of the apical solution in each well was replaced with an equal volume of saline solution containing 20 μM forskolin, 50 μM genistein, and 60 μM PPQ-102. After further 10 min, the transepithelial electrical resistance was measured. All values of TEER were converted to transepithelial electrical conductance (TEEC) using the formula TEEC=1/TEER. The parameter to indicate activity of F508del-CFTR in each well (ATEEC) was calculated from the difference in TEEC measured after maximal stimulation of F508del-CFTR with forskolin and genistein and after block with PPQ-102.
Corrector activities obtained on selected compounds tested at 5.0 μM (expressed as ΔTEEC values) are illustrated in Table 2, wherein+: ΔTEEC<2000 μS; ++: 2000 μS <ΔTEEC<3000ρS; +++: ΔTEEC>3000 μS.

mutant CFTR = mutant CFTR (Homo sapiens, UniProt P13569); assay: Fluorescence assay for CFTR activity (halide-sensitive YFP, HS-YFP); settings: CFBE41o- and FRT cells with stable expression of mutant CFTR
Chain of mutant CFTR (P13569 with tags, fused parts or gaps DEL508-508): as above
In short: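 CFBE41o- or FRT cells stably expressing mutant CFTR and HS-YFP; correctors given 24 h, then 30 min forskolin 20 μM plus genistein 50 μM. Potentiators given 30 min with forskolin 20 μM, after 24 h at 27° C. for F508del, directly for G551D or G1349D. Quenching rate after 100 mM final I^− gives EC50.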

F508del-CFTR [2] = biological target: T1, F508del-CFTR; assay: Short-circuit current recordings on human bronchial epithelial cells from CF patients (F508del/F508del); set-up: Human bronchial epithelial (HBE) cells obtained from CF patients (F508del/F508del genotype); endogenous in cells; host or cells: primary human bronchial epithelial cells from CF patients, F508del/F508del; settings: HBE cells F508del/F508del, 24 hrs treatment, CPT-cAMP plus VX-770 minus CFTRinh-172
Experimental: Human bronchial epithelial (HBE) cells obtained from CF patients (F508del/F508del genotype) were plated on Snapwell inserts (Code 3801, Corning Life Sciences) at a density of 500,000 cells per insert. Cells were cultured for two weeks in a differentiating medium whose compositions has been previously described (Scudieri et al., J Physiol 590:6141-6155, 2012). For the first week, the medium was kept on both apical and basolateral sides of inserts (submerged condition). For the second week, the apical medium was removed (air-liquid condition, ALC). To test the activity of correctors, cells were treated for 24 hrs with compounds dissolved in the basolateral medium. After treatment, Snapwell inserts carrying differentiated bronchial epithelia were mounted in a vertical chamber resembling an Ussing system with internal fluid circulation. Both apical and basolateral hemichambers were filled with 5 mL of a Krebs bicarbonate solution containing (in mM): 126 NaCl, 0.38 KH2PO4, 2.13 K2HPO4, 1 MgSO4, 1 CaCl2, 24 NaHCO3, and 10 glucose. Both sides were continuously bubbled with a gas mixture containing 5% CO2-95% air and the temperature of the solution was kept at 37° C. The transepithelial voltage was short-circuited with a voltage-clamp (DVC-1000, World Precision Instruments) connected to the apical and basolateral chambers via Ag/AgCl electrodes and agar bridges (1 M KCl in 1% agar). The offset between voltage electrodes and the fluid resistance were canceled before experiments. The short-circuit current was recorded with a PowerLab 4/25 (ADInstruments) analogical to digital converter connected to a Macintosh computer. […] The difference between the current measured with CPT-cAMP plus potentiator and the current remaining after CFTRinh-172 treatment (ΔICFTR) was taken as the parameter reflecting F508del-CFTR expression in the apical membrane.
Activities of selected compounds on HBE cells (expressed as ΔICFTR) are illustrated in Table 3 wherein+: ΔICFTR<2.0 μA; ++: 2.0 μA<ΔICFTR<3.0 μA; +++: ΔICFTR >3.0 μA.

activity (corrector activity expressed as ΔTEEC) (F508del-CFTR [1]): +++ (ΔTEEC>3000 μS)
EC50 (mutant CFTR): < 1 µM
activity (ΔICFTR) (F508del-CFTR [2]): ++ (2.0 μA<ΔICFTR<3.0 μA)
Structure (SMILES): NC(=O)c1sc2ccccc2c1C1CN(S(=O)(=O)c2ccc(C(F)(F)F)c(F)c2)CCO1 (racemic) [compound 041, rac-3-[4-[3-fluoro-4-(trifluoromethyl)phenyl]sulfonylmorpholin-2-yl]benzothiophene-2-carboxamide]
